This passage reports T/C results from PubChem BioAssay AID330 (DTP/NCI, 2004).

For this test, the system named is P388 leukemia ip, CD2F1 mice, survival T/C. Kind of test: NCI In Vivo Anticancer Drug Screen. Data for tumor model P388 Leukemia (intraperitoneal) in CD2F1 (CDF1) mice. To be noted: endpoint: median survival time, higher = longer survival. The method, boiled down:
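Mice carrying the transplanted tumor received test compound or vehicle. Survival was recorded in each group, and the value is the treated-group measurement divided by that of the vehicle-treated control group.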

The mark [1] stands for this setting: dose: 50.0 mg/kg/injection, schedule: Q01DX009 (ip), vehicle: Klucel (hydroxypropylcellulose) (HPC).
Setting [2] is: dose: 200.0 mg/kg/injection, schedule: Q01DX009 (ip), vehicle: Klucel (hydroxypropylcellulose) (HPC).
[3] abbreviates: dose: 200.0 mg/kg/injection, schedule: Q01DX009 (ip), vehicle: saline.

Molecules are shown by their SMILES. Several values for one entry are separate records, joined by “and”; a condition that tells them apart may be missing. Identical values can stand only once. Inconclusive results and toxic doses are left out.

As for `CC(C)c1oc(=O)cc2c1[C@@H](O)[C@H]1OC(=O)[C@@]3(C)[C@@H](O)[C@H]4O[C@H]4[C@@]2(C)[C@@H]13`, the T/C reads like this: (dose: 0.94 mg/kg/injection, schedule: Q01DX001 (ip), vehicle: saline with Tween-80) 105 % of control; (dose: 1.0 mg/kg/injection, schedule: Q01DX009 (ip), vehicle: saline with Tween-80) 104 % of control; (dose: 1.88 mg/kg/injection, schedule: Q01DX001 (ip), vehicle: saline with Tween-80) 105 % of control; (dose: 3.75 mg/kg/injection, schedule: Q01DX001 (ip), vehicle: saline with Tween-80) 101 % of control and 107 % of control; (dose: 7.5 mg/kg/injection, schedule: Q01DX009 (ip), vehicle: saline with Tween-80) 120 % of control; (dose: 10.0 mg/kg/injection, schedule: Q01DX009 (ip), vehicle: saline with Tween-80) 113 % of control and 115 % of control. In addition, the T/C (dose: 15.0 mg/kg/injection, schedule: Q01DX001 (ip), vehicle: saline with Tween-80) is 108 % of control and 120 % of control; the T/C (dose: 15.0 mg/kg/injection, schedule: Q01DX009 (ip), vehicle: saline with Tween-80) was 104 % of control; the T/C (dose: 30.0 mg/kg/injection, schedule: Q01DX001 (ip), vehicle: saline with Tween-80) was 109 % of control and 113 % of control.
Turning to `S=c1sc(-c2ccc(Cl)cc2)nn1CSc1nc2ccccc2[nH]1`, the T/C (dose: 60.0 mg/kg/injection, schedule: Q01DX005 (ip), vehicle: saline with Tween-80) is 100 % of control; the T/C (dose: 120.0 mg/kg/injection, schedule: Q01DX005 (ip), vehicle: saline with Tween-80) was 98 % of control; the T/C (dose: 240.0 mg/kg/injection, schedule: Q01DX005 (ip), vehicle: saline with Tween-80) was 89 % of control.
As to `COC(=O)C12OCC34C(CC5C(C)C6=CC(=O)OC6=CC5(C)C3C(O)C1O)OC(=O)C(OC(C)=O)C24` (stereo unspecified), the T/C was 106 % of control (dose: 18.37 mg/kg/injection, schedule: Q01DX005 (ip), vehicle: Klucel (hydroxypropylcellulose) (HPC)) and 115 % of control (dose: 36.75 mg/kg/injection, schedule: Q01DX005 (ip), vehicle: Klucel (hydroxypropylcellulose) (HPC)).
In the case of `CCOc1ccc(/C=N/NC(=O)C(=O)N/N=C/c2ccc(OCC)c(OCC)c2)cc1OCC`, the T/C was 102 % of control and 95 % of control and 96 % of control (dose: 6.25 mg/kg/injection, schedule: Q01DX005 (ip), vehicle: Klucel (hydroxypropylcellulose) (HPC)); 90 % of control under setting [1]; 92 % of control under setting [2].
Take `COc1cccc2c1C(=O)c1c(O)c3c(c(O)c1C2=O)CC(O)(c1csc(C)n1)CC3O` (stereo unspecified): the T/C reads like this: (dose: 1.56 mg/kg/injection, schedule: Q01DX009 (ip), vehicle: other) 105 % of control; (dose: 3.13 mg/kg/injection, schedule: Q01DX009 (ip), vehicle: other) 96 % of control; (dose: 6.25 mg/kg/injection, schedule: Q01DX009 (ip), vehicle: other) 100 % of control; (dose: 12.5 mg/kg/injection, schedule: Q01DX009 (ip), vehicle: other) 100 % of control; (dose: 25.0 mg/kg/injection, schedule: Q01DX009 (ip), vehicle: other) 99 % of control and 107 % of control; (dose: 50.0 mg/kg/injection, schedule: Q01DX009 (ip), vehicle: other) 108 % of control. Moreover, the T/C (dose: 100.0 mg/kg/injection, schedule: Q01DX009 (ip), vehicle: other) is 107 % of control.
`CC(=O)CC(C)=O.CCN(CC)CC[C-]=O.[Pd+2]`: the T/C (dose: 0.78 mg/kg/injection, schedule: Q04DX003 (ip), vehicle: propolene glycol) is 97 % of control; the T/C (dose: 1.56 mg/kg/injection, schedule: Q04DX003 (ip), vehicle: propolene glycol) is 95 % of control; the T/C (dose: 3.13 mg/kg/injection, schedule: Q04DX003 (ip), vehicle: propolene glycol) is 97 % of control; the T/C (dose: 6.25 mg/kg/injection, schedule: Q04DX003 (ip), vehicle: propolene glycol) is 96 % of control; the T/C (dose: 12.5 mg/kg/injection, schedule: Q04DX003 (ip), vehicle: other) was 123 % of control; the T/C (dose: 12.5 mg/kg/injection, schedule: Q04DX003 (ip), vehicle: propolene glycol) was 91 % of control. For the same molecule, the T/C (dose: 25.0 mg/kg/injection, schedule: Q04DX003 (ip), vehicle: other) was 120 % of control.
`Nc1cc2c(c[n+](Cc3ccccc3)c3ccccc23)c2ccccc12`: the T/C is 105 % of control (dose: 0.2 mg/kg/injection, schedule: Q04DX003 (ip), vehicle: water); 102 % of control (dose: 0.39 mg/kg/injection, schedule: Q04DX003 (ip), vehicle: water); 102 % of control (dose: 0.78 mg/kg/injection, schedule: Q04DX003 (ip), vehicle: water); 105 % of control (dose: 1.56 mg/kg/injection, schedule: Q04DX003 (ip), vehicle: water).
`Nc1nc(F)nc2c1ncn2C1OC(COP(=O)(O)O)C(O)C1O` (stereo unspecified): the T/C is, setting by setting: (dose: 12.5 mg/kg/injection, schedule: Q01DX009 (ip), vehicle: Klucel (hydroxypropylcellulose) (HPC)) 110 % of control; (dose: 25.0 mg/kg/injection, schedule: Q01DX009 (ip), vehicle: Klucel (hydroxypropylcellulose) (HPC)) 117 % of control; under setting [1], 120 % of control; (dose: 50.0 mg/kg/injection, schedule: Q04DX002 (ip), vehicle: saline) 100 % of control; (dose: 100.0 mg/kg/injection, schedule: Q01DX009 (ip), vehicle: Klucel (hydroxypropylcellulose) (HPC)) 153 % of control and 165 % of control; (dose: 100.0 mg/kg/injection, schedule: Q04DX002 (ip), vehicle: saline) 107 % of control. Further, the T/C was 203 % of control and 213 % of control (dose: 175.0 mg/kg/injection, schedule: Q01DX009 (ip), vehicle: saline); 111 % of control and 215 % of control under setting [2]; 222 % of control and 224 % of control under setting [3]; 111 % of control and 117 % of control (dose: 200.0 mg/kg/injection, schedule: Q04DX002 (ip), vehicle: saline); 230 % of control and 233 % of control (dose: 225.0 mg/kg/injection, schedule: Q01DX009 (ip), vehicle: saline); 236 % of control and 241 % of control (dose: 250.0 mg/kg/injection, schedule: Q01DX009 (ip), vehicle: saline). For the same molecule, the T/C reads like this: (dose: 400.0 mg/kg/injection, schedule: Q04DX002 (ip), vehicle: saline) 123 % of control; (dose: 1500.0 mg/kg/injection, schedule: Q01DX001 (ip), vehicle: saline) 155 % of control; (dose: 1600.0 mg/kg/injection, schedule: Q04DX002 (ip), vehicle: saline) 182 % of control.
As for `OCC[Se][Se]CCO`, the T/C (dose: 1.25 mg/kg/injection, schedule: Q01DX009 (ip), vehicle: Klucel (hydroxypropylcellulose) (HPC)) was 103 % of control; the T/C (dose: 2.5 mg/kg/injection, schedule: Q01DX009 (ip), vehicle: Klucel (hydroxypropylcellulose) (HPC)) was 100 % of control; the T/C (dose: 5.0 mg/kg/injection, schedule: Q01DX009 (ip), vehicle: Klucel (hydroxypropylcellulose) (HPC)) was 103 % of control.
Consider `NS(=O)(=O)c1ccc(CN2C(=O)c3ccccc3C2=O)cc1`, for which the T/C (dose: 100.0 mg/kg/injection, schedule: Q04DX002 (ip), vehicle: saline with Tween-80) is 110 % of control.
Consider `CC1C(=O)CCC2(C)CCC(C)(C)CC12` (stereo unspecified), for which the T/C is 91 % of control (dose: 100.0 mg/kg/injection, schedule: Q01DX009 (ip), vehicle: saline with Tween-80); 104 % of control (dose: 200.0 mg/kg/injection, schedule: Q01DX009 (ip), vehicle: saline with Tween-80); 95 % of control (dose: 400.0 mg/kg/injection, schedule: Q01DX009 (ip), vehicle: saline with Tween-80).
Turning to `COc1ccc(C(=O)Nc2c(O)ccc3ccccc23)cc1OC`, the T/C by setting is: (dose: 50.0 mg/kg/injection, schedule: Q01DX005 (ip), vehicle: saline with Tween-80) 101 % of control; (dose: 100.0 mg/kg/injection, schedule: Q01DX005 (ip), vehicle: saline with Tween-80) 97 % of control; (dose: 200.0 mg/kg/injection, schedule: Q01DX005 (ip), vehicle: saline with Tween-80) 100 % of control.
With `N#C/C(=C\c1ccc2c(c1)OCO2)C(=O)N/N=C/c1ccc2c(c1)OCO2`, the T/C (dose: 50.0 mg/kg/injection, schedule: Q01DX009 (ip), vehicle: saline) is 101 % of control; the T/C (dose: 100.0 mg/kg/injection, schedule: Q01DX009 (ip), vehicle: saline) is 98 % of control; the T/C under setting [3] was 94 % of control.
Take `COc1ccc2nc3cc(Cl)ccc3c(NCCCNCCCCNCCCNc3c4ccc(Cl)cc4nc4ccc(OC)cc34)c2c1`: the T/C is, setting by setting: (dose: 0.62 mg/kg/injection, schedule: Q01DX009 (ip), vehicle: other) 106 % of control; (dose: 1.25 mg/kg/injection, schedule: Q01DX009 (ip), vehicle: other) 110 % of control; (dose: 2.5 mg/kg/injection, schedule: Q01DX009 (ip), vehicle: other) 119 % of control.
